Assay [1] deals with wildtype E. coli. The assay can be described thus: Colanic acid measurement (fucose quantification) in wildtype E. coli culture medium. Format: cell-based. The method, then:
For colanic acid quantification, E. coli Keio mutants and the parental strain BW25113 were cultured overnight at 37° C. in M9 minimum medium [PMID: 28436966]. Bacteria were then removed by centrifugation and filtered for colanic acid measurement.
The desired bacterial strain was first inoculated and cultured in M9 minimum medium overnight at 37° C. to obtain the seeding culture. The OD 600 was measured, and the seeding bacteria were diluted to OD600=0.02 in M9 minimum medium for another 16 hours. After the incubation, bacterial cultures were collected in 50 mL tubes, spun down at 4,000 g at 4° C. for 30 min, filtered, and 25 mL of supernatant was collected per 50 ml conical tube. Ice-cold 100% ethanol (EtOH) was added to make a final 50% EtOH solution for precipitation, and the mixture was kept at 4° C. overnight. Once precipitation occurred, the liquid was carefully removed after centrifugation at 4,000 g at 4° C. for 50 min. The pellet was washed once with cold 80% EtOH and then air-dried in a hood. The pellet from every 50 mL culture was resuspended in 500 μL distilled H2O. The solution was sonicated for 60 minutes at 37° C., followed by centrifugation at 4000 g at 4° C. for 10 minutes. A 200 μL sample was mixed with 30 μL hydrochloric acid (320331-500 mL, Sigma-Aldrich) and boiled for 2 hours. Subsequently, 60 μL 5M NaOH and 150 μL NaHCO3/NaOH buffer were added to reach a pH of 6-8, calibrated by 1M HCl or NaOH solutions. The fucose quantification assay was then carried out using a K-FUCOSE kit (Megazyme) according to the manufacturer's protocol.
Next, colanic acid in the bacteria culture medium was quantified via monosaccharide-fucose-from acid-hydrolyzed polysaccharide precipitates. […] Calculations were performed to determine the equivalent dosage by weight in a mammalian subject. Briefly, a typical mouse consumes 5-10 ml of water per day and weighs between 30-40 g. Using the 1.8 μg/mL concentration, a lower bound of 0.225 mg/kg (0.0018 mg/mL×5 ml[…]0.04 kg) and a higher bound of 0.6 mg/kg (0.0018 mg/mL×10 ml÷0.03 kg) were identified. […] In wild-type bacteria treated with cephaloridine and Alon E. coli mutants colanic acid production increased during the exponential growth phase and remained elevated in the stationary phase (FIG. 1D).

Assay [2] has as its system E. coli. Nature of the assay: Bacterial growth under low-dose cephaloridine. Format: cell-based. Particulars: low-dose cephaloridine vs vehicle-treated E. coli.
The test system of assay [3] is cps promoter. The assay can be described thus: cps G-R reporter bacteria imaging in vitro (GFP-to-RFP ratio). Format: cell-based, E. coli. The conditions noted are these: low-dose cephaloridine, cultured at 37° C. The protocol:
For high-resolution imaging, rph1 ilvG rfb-50 attL (Psyn135::mcherry <FRT>) attHKPR218 (cps G-R reporter strain), a genetically modified strain derived from MG1655 (genotype rph1 ilvG rfb-50), was generated. pPR218, integrated at the HK site, encodes Pcps::sfGFP and chloramphenicol resistance.
In vitro imaging: The cps G-R reporter strain was cultured in M9 minimal medium. Bacteria culture was harvested at an OD600 of 0.6. For bacteria imaging, 1 μL of the culture was loaded onto a 1% low-melt agarose pad made with M9 medium [PMID: 23680982].
MG1655, a human-derived commensal K12 strain, was treated with a low dose of cephaloridine at 37° C., which induced colanic acid production (FIG. 3A). […] To determine whether cephaloridine activates cps expression in a commensal bacterium in a mammalian host, MG1655 was engineered as shown in FIG. 3C to express GFP under the control of the cps promoter and to constitutively express RFP under a synthetic promoter syn135, resulting in the cps G-R reporter strain. […] The luminal content of mice ileum was harvested after 3 hours of cephaloridine administration and were imaged for fluorescence. […]

Assay [4] deals with cps operon in commensal E. coli. Nature of the assay: cps G-R reporter bacteria from mouse ileum, in vivo imaging (GFP-to-RFP ratio). More on the design: species or system C57BL6 mice. Particulars: for increase in GFP-to-RFP ratio: oral gavage plus drinking water, 3 hours, ileum.
Protocol: In vivo imaging: Co-housed female C57BL6 mice received cps G-R reporter E. coli at 1×10^8 CFU per 100 mL through distilled drinking water. The bacteria-containing water was prepared and replaced daily for three days continuously. […] Luminal content from the ileum was collected and processed for imaging bacteria from in vivo samples immediately after euthanasia as previously described [PMID: 34428120]. In brief, the ileum sections were collected and then finely minced by a pair of iris scissors in 2 mL 1×PBS. Samples were then vortexed for 1 minute and filtered with a sterile cell strainer (40 μm) to remove the tissue debris. The microbiota was washed 3 times with 1.5 mL PBS by centrifugation (15,000×g, 3 min) and then resuspended in 0.1 mL PBS for imaging.
The cps G-R reporter strain was introduced to wild-type C57B6 mice through drinking water, followed by cephaloridine administration through a single-dose oral gavage and cephaloridine-containing water for 3 hours, which allowed for sufficient intestinal transit time [PMID: 23915679] and E. coli turnover time [PMID: 26392213] for optimal dosing (FIG. 3E). […] The luminal content of mice ileum was harvested after 3 hours of cephaloridine administration and were imaged for fluorescence.
Assay [5] in a line: Age-related metabolic dysfunction in mice, cephaloridine in drinking water. The class given is in vivo. Particulars: oral 2 μg/mL. The protocol:
Methods: Co-housed 12-month-old […] mice were given MG1655 E. coli at 1×10^8 CFU/mL through distilled drinking water (100 mL) for 24 hours to maintain E. coli occupancy in the mouse gut microbiota. Subsequently, mice received 2 μg/mL cephaloridine through drinking water (100 mL) for 60 hours. […] This entire procedure was then repeated. Cephaloridine dosages were calculated as follows. Briefly, a typical mouse used in this study consumed 5-10 ml of water per day and weighed between 30-40 g. Using the 2 μg/mL concentration, a lower bound of 0.25 mg/kg (0.002 mg/mL×5 mL=0.04 kg) and a higher bound of 0.67 mg/kg (0.002 mg/mL×10 mL=0.03 kg) were identified.

Assay [6] deals with E. coli. The conditions noted are these: previously reported, cited from earlier work.

SMILES strings stand for the structures. Converted amounts (≈) assume the structure as drawn. “And” between values parts separate entries of the source, which are not always exact repeats. Equal values may be shown once. “Also recorded” adds a separate entry of the source. Read-outs that look alike come from different tables or passages of the source.

Turning to `O=C(Cc1cccs1)N[C@@H]1C(=O)N2C(C(=O)[O-])=C(C[n+]3ccccc3)CS[C@H]12` [cephaloridine], the “colanic acid production vs untreated wildtype control” value in assay [1] (cephaloridine 1.8 μg/mL, 37° C.) is reported as 6 fold. In assay [1] (range of doses below MIC), the “optimal concentration for inducing colanic acid biosynthesis” value is 1.8 μg/mL and 4.3 μM. The “effect on bacterial growth” value in assay [2] was “did not hinder bacteria growth; also recorded: does not alter bacterial growth”. Further, the “increase in GFP-to-RFP intensity ratio” value in assay [3] was 20%. Besides, the “cps operon induction in the mouse intestine” value in assay [4] (4 μg/mL dose) was “induced the cps operon”; in assay [4] (8 μg/mL dose) it was “failed to exert this effect”. The “increase in GFP-to-RFP ratio” value in assay [4] (4 μg/mL) was 13%; in assay [4] (8 μg/mL) it was “no such increase”. For the same molecule, the “increase in plasma insulin between 12 and 18 months of age vs controls” value in assay [5] (female mice) was “lower”. Also, the “age-related increase in LDL:HDL ratio” value in assay [5] (male mice) is on record as “suppressed”. For the same molecule, the “plasma HDL” value in assay [5] (male mice) was “not affected”. The “plasma LDL between 12 and 18 months of age” value in assay [5] (male mice) is recorded as “remain nearly unchanged”. The MIC in assay [6] (PMID 380457) was 2 µg/mL (≈ 4.81 µM); in assay [6] (PMID 9371340), 4 µg/mL (≈ 9.63 µM).

Source of the values: patent US20250295668A1, “METHODS FOR INDUCING COLANIC ACID BIOSYNTHESIS” (priority 2024, published 2025).
